Source: the PolyMetriX glass transition set
± gives the standard deviation of the reports.

Structure (SMILES) | glass transition temperature [°C]
*CCCCOC(=O)Nc1ccc(C)c(NC(=O)O*)c1 (repeat unit) | 42.00
*CCCCCCCCc1nc2cc(NC(=O)CCCCCCCCC(=O)Nc3ccc4oc(*)nc4c3)ccc2o1 (repeat unit) | 93.00
*CCCCCCNC(=O)c1ccc(C(=O)N*)c(Oc2ccccc2)c1 (repeat unit) | 108.00
*O[Si](C)(C)CCCC(=O)Oc1ccc(/C=N/c2ccc(/N=C/c3ccc(OC(=O)CCC[Si](*)(C)C)cc3)cc2)cc1 (repeat unit) | 60.00
*Oc1ccc(Oc2cccc(*)n2)cc1 (repeat unit) | 100.00
*/C(C)=C(/*)SCCCCCC (repeat unit) | 110.00
*CC(*)c1c(F)c(F)c(OCC(F)(F)C(F)(F)C(F)(F)C(F)(F)C(F)(F)C(F)(F)C(F)(F)F)c(F)c1F (repeat unit) | 21.00
*CC(*)(C)C(=O)OCCCCCOc1ccc(OC(=O)c2ccc(OC)cc2)cc1 (repeat unit) | 38.00
*CC(*)(C)C(=O)OC(C)CC (repeat unit) [Poly(sec-butyl methacrylate)] | 57 ± 2.6
*Oc1ccc(Oc2ccc(/C=N/CCCCCCCCCCCC/N=C/c3ccc(*)cc3)cc2)cc1 (repeat unit) | 118.00
*Cc1cc(C)c(CNC(=O)CCCCC(=O)N*)cc1C (repeat unit) | 70.00
*c1cccc(P(=O)(c2cccc(-n3c(=O)c4cc5c(=O)n(*)c(=O)c5c(-c5cc(C(F)(F)F)cc(C(F)(F)F)c5)c4c3=O)c2)c2cc(C(F)(F)F)cc(C(F)(F)F)c2)c1 (repeat unit) | 280.00
*CC(*)(F)C(=O)OCC(F)(F)F (repeat unit) | 124.00
*CC#CC#CCOc1ccc(C(=O)OCCN(CCOC(=O)c2ccc(O*)cc2)c2ccc(/N=N/c3ccc(C#N)cc3)cc2)cc1 (repeat unit) | 121.00
*O[Si](*)(C)CCCOc1ccc(C(=O)OC2CCC3(C)C(=CCC4C3CCC3(C)C(C(C)CCCC(C)C)CCC43)C2)cc1S(=O)(=O)[O][K] (repeat unit) | 112.60
*CC(O)CN(C)S(=O)(=O)c1cccc(S(=O)(=O)N(C)CC(O)COc2ccc(O*)cc2)c1 (repeat unit) | 66.00
*O[Si](C)(C)CCC/N=C/c1cc(Cc2ccc(O)c(/C=N/CCC[Si](*)(C)C)c2)ccc1O (repeat unit) | -51.62
*CCN(CCOC(=O)c1cc(OCCN(C)c2ccc(S(=O)(=O)C(F)(F)C(F)(F)C(F)(F)C(F)(F)C(F)(F)C(F)(F)C(F)(F)C(F)(F)F)cc2)cc(C(=O)O*)c1)c1ccc(S(=O)(=O)C(F)(F)C(F)(F)C(F)(F)C(F)(F)C(F)(F)C(F)(F)C(F)(F)C(F)(F)F)cc1 (repeat unit) | 83.00
*CC(*)(C)C(=O)OCCCCCC (repeat unit) [poly(hexyl methacrylate)] | -6.6 ± 7.2
*CCCCCCC(=O)O* (repeat unit) | -14.00
*CC(*)(C)C(=O)OCCCCCCCCCCOc1ccc(/N=N/c2ccc(C#N)cc2)cc1 (repeat unit) | 51.00
*c1ccc(C(c2ccc(C#N)cc2)c2ccc(N(*)c3ccc(C)cc3)cc2)cc1 (repeat unit) | 230.00
*O[Si](C)(C)O[Si](C)(C)O[Si](C)(C)O[Si](C)(C)O[Si](C)(C)c1ccc(Oc2ccc([Si](*)(C)C)cc2)cc1 (repeat unit) | -65.00
*c1cccc(C(F)(F)C(F)(F)C(*)(F)F)c1 (repeat unit) | 29.00
*CCCCCCCCNC(=O)NCc1ccc(CNC(=O)N*)cc1 (repeat unit) | 68.00
*CC(*)(C)C(=O)OC1CCCC1 (repeat unit) | 75.00
*CC(*)(Cl)C(=O)OCCC(F)(F)C(F)(F)C(F)(F)C(F)(F)C(F)(F)C(F)(F)C(F)(F)C(F)(F)F (repeat unit) | 61.00
*Oc1cc(OC(=O)c2ccc(OCCCC)cc2)c(OC(=O)CCCCCCCC(*)=O)cc1OC(=O)c1ccc(OCCCC)cc1 (repeat unit) | 38.00
*CC(*)(CC(=O)OCCCC1CCCCC1)C(=O)OCCCC1CCCCC1 (repeat unit) | 7.00

More lines, now with the values ahead:

glass transition temperature [°C] | Structure (SMILES)
185.50 | *c1ccc(Sc2ccc(Sc3ccc(N4C(=O)c5ccc(Sc6ccc(Sc7ccc(Sc8ccc9c(c8)C(=O)N(*)C9=O)cc7)cc6)cc5C4=O)cc3)s2)cc1 (repeat unit)
243.00 | *C(=O)Nc1ccc(Oc2ccc(Oc3ccc(NC(=O)c4ccc5c(c4)C(=O)N(c4ccc(S(=O)(=O)c6ccc(N7C(=O)c8ccc(*)cc8C7=O)cc6)cc4)C5=O)cc3)cc2)cc1 (repeat unit)
218.00 | *c1ccc(Oc2ccc(C(=O)c3ccc(Oc4ccc(C5(*)OC(=O)c6ccccc65)cc4)cc3)cc2)cc1 (repeat unit)
123.7 | *c1ccc2c(c1)C(=O)N(c1ccc(Oc3ccc(N4C(=O)c5ccc(C(C)(C)CCCCCCCCC(*)(C)C)cc5C4=O)cc3)cc1)C2=O (repeat unit)
290.00 | *c1ccc2c(c1)C(=O)N(c1ccc(Cc3ccc(N4C(=O)c5ccc(C(F)(F)C(F)(F)C(*)(F)F)cc5C4=O)cc3)cc1)C2=O (repeat unit)
227.00 | *c1ccc(Oc2ccc(C(c3ccc(Oc4ccc(N5C(=O)c6ccc(Oc7ccc(C8(c9ccc(Oc%10ccc%11c(c%10)C(=O)N(*)C%11=O)cc9)CCC(C(C)(C)C)CC8)cc7)cc6C5=O)cc4)cc3)(C(F)(F)F)C(F)(F)F)cc2)cc1 (repeat unit)
186.00 | *Oc1ccc(Oc2ccc(S(=O)(=O)c3ccc(Oc4ccc(C(=O)c5ccc(*)cc5)cc4)cc3)cc2)cc1 (repeat unit)
111.00 | *CCCCCCCCCCOc1ccc(-c2cc(-c3ccc(-c4ccccc4)cc3)c(-c3ccc(NC(=O)c4ccc(C(=O)Nc5ccc(-c6c(-c7ccc(-c8ccccc8)cc7)cc(-c7ccc(O*)cc7)cc6-c6ccc(-c7ccccc7)cc6)cc5)cc4)cc3)c(-c3ccc(-c4ccccc4)cc3)c2)cc1 (repeat unit)
75.00 | *CCC[Si](C)(C)O[Si](C)(C)CCCN1C(=O)c2ccc(-c3ccc4c(c3)C(=O)N(*)C4=O)cc2C1=O (repeat unit)
189.6 | *Oc1ccc(S(=O)(=O)c2ccc(Oc3ccc(Cc4ccc(*)cc4)cc3)cc2)cc1 (repeat unit)
224.00 | *Oc1ccc(/C(=C/c2ccc(-c3ccc(/C=C(\c4ccccc4)c4ccc(OC(=O)c5cccc(C(*)=O)c5)cc4)cc3)cc2)c2ccccc2)cc1 (repeat unit)
324.00 | *c1ccc(Cc2ccc(N3C(=O)c4ccc(-c5ccc6c(c5)C(=O)N(*)C6=O)cc4C3=O)c(C(C)(C)C)c2)cc1C(C)(C)C (repeat unit)
89.00 | *CCCCCC(=O)Oc1ccc(OC(=O)c2ccc3c(c2)C(=O)N(*)C3=O)cc1 (repeat unit)
371.00 | *c1ccc(Oc2ccc(-c3c(-c4ccccc4)c4c(c(-c5ccccc5)c3-c3ccccc3)C(=O)N(c3ccc(N5C(=O)c6c(c(-c7ccccc7)c(-c7ccccc7)c(*)c6-c6ccccc6)C5=O)cc3)C4=O)cc2)cc1 (repeat unit)
157.00 | *Nc1ccc(C(C)(C)c2ccc(C(C)(C)c3ccc(Nc4ccc(C(=O)c5ccc(C(=O)c6ccc(*)cc6)cc5)cc4)cc3)cc2)cc1 (repeat unit)
246.63 | *Oc1c(C)cc(-c2cc(C)c(Oc3ccc(C(=O)c4ccc(*)cc4)cc3)c(C)c2)cc1C (repeat unit)
114.00 | *Oc1cccc(NC(=O)c2cccc(C(=O)Nc3ccc(Oc4ccc(C(=O)c5ccc(*)cc5)cc4)cc3)c2)c1 (repeat unit)
220.00 | *c1nnc(-c2ccc(Oc3ccc(C(c4ccc(Oc5ccc(*)c6ccccc56)cc4)(C(F)(F)F)C(F)(F)F)cc3)c3ccccc23)o1 (repeat unit)
254.00 | *c1ccc(Oc2ccc(C3(c4ccc(Oc5ccc(N6C(=O)c7ccc(Oc8ccc(C9(c%10ccc(Oc%11ccc%12c(c%11)C(=O)N(*)C%12=O)cc%10)CCCCCCCCCCC9)cc8)cc7C6=O)cc5)cc4)CCC(C(C)(C)C)CC3)cc2)cc1 (repeat unit)
269.00 | *c1cc(C)c(Oc2ccc(S(=O)(=O)c3ccc(Oc4cc(C)c(C5(*)OC(=O)c6ccccc65)cc4C)cc3)cc2)cc1C (repeat unit)
339.00 | *Nc1ccc(-c2ccc(NC(=O)c3cc(NC(=O)c4ccncc4)cc(C(*)=O)c3)cc2)cc1 (repeat unit)
196.00 | *Oc1cccc2ccc(Oc3ccc(NC(=O)c4ccc(Oc5cccc(Oc6ccc(C(=O)Nc7ccc(*)cc7)cc6)c5)cc4)cc3)cc12 (repeat unit)
335.00 | *Oc1ccc(C2(c3ccc(OC(=O)C45CC6CC(CC(C(*)=O)(C6)C4)C5)cc3)c3ccccc3-c3ccccc32)cc1 (repeat unit)
230.00 | *Nc1ccc(-c2ccc(NC(=O)Cc3cc(CC(*)=O)c(C)cc3C)cc2)cc1 (repeat unit)
195.00 | *c1ccc2c(c1)C(=O)N(c1cc(OCCCCCCCC)cc(N3C(=O)c4ccc(C(*)(C(F)(F)F)C(F)(F)F)cc4C3=O)c1)C2=O (repeat unit)
215.00 | *c1cccc(NC(=O)c2ccc(OCCOCCOc3ccc(C(=O)Nc4ccc5[nH]c(*)nc5c4)cc3)cc2)c1 (repeat unit)
110.00 | *CCCCCCCN1C(=O)c2ccc(Oc3ccc4c(c3)C(=O)N(*)C4=O)cc2C1=O (repeat unit)
265.00 | *c1ccc2c(c1)C(=O)N(c1cccc(C(=O)Nc3ccc(Oc4ccccc4Oc4ccc(NC(=O)c5cccc(N6C(=O)c7ccc(C(*)(C(F)(F)F)C(F)(F)F)cc7C6=O)c5)cc4)cc3)c1)C2=O (repeat unit)
245.00 | *c1ccc(Oc2ccc(S(=O)(=O)c3ccc(Oc4ccc(C5(*)OC(=O)c6ccccc65)cc4C)cc3)cc2)c(C)c1 (repeat unit)
269.00 | *Oc1ccc(NC(=O)c2ccc(C(=O)Nc3ccc(Oc4ccc(C5(c6ccc(*)cc6)C6CC7CC(C6)CC5C7)cc4)cc3)c3ccccc23)cc1 (repeat unit)
